What all share (assay type): cell-based
The target in assay [1] is T1, human NMUR2 receptor (Homo sapiens, UniProt Q9GZQ4). In words: IP1 Gq HTRF assay, activation of human NMUR2 in buffer. More on the design: expressed in transfected cells; host or cells: CHO-K1. Conditions: CHO-K1 cells expressing human NMUR2, stimulation buffer with 0.1% BSA; read-out: EC50 (hNMUR2) buffer. The gist of the method: (§1)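 IP-One HTRF competition (665/620 nm ratio) read after 1 h agonist exposure at 37 °C in pH 7.4 HEPES/HBSS stimulation buffer containing 50 mM LiCl, 0.1% BSA, 1% DMSO. Cells: CHO-K1 stably expressing human NMUR2 or NMUR1. EC50 by 4-parameter nonlinear regression of 8-point curves.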
T1 sequence (Q9GZQ4 whole entry): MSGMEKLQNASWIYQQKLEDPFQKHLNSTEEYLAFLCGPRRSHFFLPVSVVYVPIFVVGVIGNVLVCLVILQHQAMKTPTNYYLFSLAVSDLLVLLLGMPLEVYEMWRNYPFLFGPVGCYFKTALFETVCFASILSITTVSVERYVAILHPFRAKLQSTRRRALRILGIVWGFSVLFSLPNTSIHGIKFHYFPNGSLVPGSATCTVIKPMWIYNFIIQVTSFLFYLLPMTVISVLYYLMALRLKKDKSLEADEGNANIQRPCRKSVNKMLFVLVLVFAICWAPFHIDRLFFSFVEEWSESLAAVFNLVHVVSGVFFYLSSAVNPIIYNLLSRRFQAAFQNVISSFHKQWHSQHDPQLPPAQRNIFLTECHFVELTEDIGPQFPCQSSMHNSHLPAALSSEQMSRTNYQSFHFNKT
In general terms: TR-FRET usually uses a lanthanide donor and a delayed reading to cut background.

Assay [2] concerns the target T1, human NMUR2 receptor. The experiment in a line: IP1 Gq HTRF assay, activation of human NMUR2 in human plasma. More on the design: expressed in transfected cells; host or cells: CHO-K1. Conditions: CHO-K1 cells expressing human NMUR2, 100% human plasma; read-out: EC50 (hNMUR2) human plasma. The gist of the method: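 EC50 obtained via 4-parameter sigmoidal regression of HTRF IP-One signal (665 nm/620 nm), which falls as intracellular IP1 rises. Stimulation: 1 h, 37° C, peptides in human plasma plus 50 mM LiCl, 1% DMSO final, on NMUR2-expressing CHO-K1 cells, 8 concentrations.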

The next assay addresses T2, human NMUR1 receptor (Homo sapiens, UniProt Q9HB89).
T2 construct: expressed in transfected cells; host or cells: CHO-K1
T2 sequence (Q9HB89 1-426): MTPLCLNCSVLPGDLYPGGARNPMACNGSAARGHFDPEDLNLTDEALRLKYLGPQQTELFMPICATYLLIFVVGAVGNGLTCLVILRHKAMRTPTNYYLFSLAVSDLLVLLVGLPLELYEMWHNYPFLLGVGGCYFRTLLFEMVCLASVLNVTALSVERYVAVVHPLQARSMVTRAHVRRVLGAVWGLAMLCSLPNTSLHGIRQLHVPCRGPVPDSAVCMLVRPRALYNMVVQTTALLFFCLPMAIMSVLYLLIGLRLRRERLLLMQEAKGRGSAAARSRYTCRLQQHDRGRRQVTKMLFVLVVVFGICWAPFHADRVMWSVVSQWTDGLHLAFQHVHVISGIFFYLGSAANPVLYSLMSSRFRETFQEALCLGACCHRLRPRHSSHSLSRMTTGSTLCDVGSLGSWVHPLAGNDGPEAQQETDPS
In words: IP1 Gq HTRF assay, activation of human NMUR1 in buffer. The conditions noted are these: CHO-K1 cells expressing human NMUR1, stimulation buffer with 0.1% BSA; read-out: EC50 (hNMUR1) buffer. The gist of the method:
as §1

Molecules are shown by their SMILES. Starred links: 1 amine or outer side, 2 acyl side, 3 side chain; linkers in the order of their positions; H or OH if unused. Non-standard residues stand in square brackets, D forms with d. Residues, ends and D or L forms follow the SMILES beside them. *: point of attachment. Pipz(1-CH2CO,4-CH2CH2NH) = O=C(CN1CCN(CCN[*:1])CC1)[*:2]; C18 diacid = O=C(O)CCCCCCCCCCCCCCCCC(=O)*; γGlu = O=C(O)[C@H](CCC(=O)[*:2])N[*:1]; 4Pal = N[C@@H](Cc1ccncc1)C(=O)O; NMeL = CN[C@@H](CC(C)C)C(=O)O; Nle = CCCC[C@H](N)C(=O)O; Sar = CNCC(=O)O

Usually EC50 stands for the concentration needed to bring the measured effect to its halfway point. Regarding `CCCC[C@H](NC(=O)[C@H](CC(C)C)N(C)C(=O)[C@H](Cc1ccccc1)NC(=O)[C@H](Cc1ccc(O)cc1)NC(=O)CN1CCN(CCNC(=O)CN(C)C(=O)CN(C)C(=O)CN(C)C(=O)CN(C)C(=O)CN(C)C(=O)CN(C)C(=O)CN(C)C(=O)CN(C)C(=O)CN(C)C(=O)CN(C)C(=O)CN(C)C(=O)CN(C)C(=O)CC[C@H](NC(=O)CC[C@H](NC(=O)CC[C@H](NC(=O)CC[C@H](NC(=O)CCCCCCCCCCCCCCCCCCC(=O)O)C(=O)O)C(=O)O)C(=O)O)C(=O)O)CC1)C(=O)N[C@@H](CCCNC(=N)N)C(=O)N1CCC[C@H]1C(=O)N[C@@H](CCCNC(=N)N)C(=O)NCC(N)=O` [Compound 39, C20DA-gGlu4-Sar12-AEPipAc-Tyr-Phe-NMeLeu-Nle-Arg-Pro-Arg-Gly-NH2], the concentration giving a half-maximal response (EC50) was 0.0025 µM on human NMUR2 receptor [1], 0.0104 µM on human NMUR2 receptor [2] and 0.19 µM at human NMUR1 receptor.

Regarding `CCCC[C@H](NC(=O)[C@H](CC(C)C)N(C)C(=O)[C@H](Cc1ccccc1)NC(=O)[C@H](Cc1ccc(O)cc1)NC(=O)CN1CCN(CCNC(=O)CN(C)C(=O)CN(C)C(=O)CN(C)C(=O)CN(C)C(=O)CN(C)C(=O)CN(C)C(=O)CN(C)C(=O)CN(C)C(=O)CN(C)C(=O)CN(C)C(=O)CN(C)C(=O)CN(C)C(=O)CC[C@H](NC(=O)CC[C@H](NC(=O)CC[C@H](NC(=O)CC[C@H](NC(=O)CCCCCCCCCCCCCCCCC(=O)O)C(=O)O)C(=O)O)C(=O)O)C(=O)O)CC1)C(=O)N[C@@H](CCN)C(=O)N1CCC[C@H]1C(=O)N[C@@H](CCCNC(=N)N)C(=O)NCC(N)=O` [Compound 41, C18DA-gGlu4-Sar12-AEPipAc-Tyr-Phe-NMeLeu-Nle-Dbu-Pro-Arg-Gly-NH2], the EC50 at human NMUR2 receptor [1] is 0.002 µM; on human NMUR2 receptor [2], 0.0122 µM; at human NMUR1 receptor, 1.3 µM.

On to `CCCC[C@H](NC(=O)[C@H](CC(C)C)N(C)C(=O)[C@H](Cc1ccccc1)NC(=O)[C@H](Cc1ccc(O)cc1)NC(=O)CN1CCN(CCNC(=O)CN(C)C(=O)CN(C)C(=O)CN(C)C(=O)CN(C)C(=O)CN(C)C(=O)CN(C)C(=O)CN(C)C(=O)CN(C)C(=O)CN(C)C(=O)CC[C@H](NC(=O)CC[C@H](NC(=O)CCCCCCCCCCCCCCCCC(=O)O)C(=O)O)C(=O)O)CC1)C(=O)N[C@@H](CCCN)C(=O)N(C)[C@@H](C)C(=O)N[C@@H](CCCNC(=N)N)C(=O)NCC(N)=O` [Compound 44, C18DA-gGlu2-Sar9-AEPipAc-Tyr-Phe-NMeLeu-Nle-Orn-NMeAla-Arg-Gly-NH2] (HELM PEPTIDE1{[O=C(O)CCCCCCCCCCCCCCCCC(=O)[*:2]].[gGlu].[gGlu].[Sar].[Sar].[Sar].[Sar].[Sar].[Sar].[Sar].[Sar].[Sar].[O=C(CN1CCN(CCN[*:1])CC1)[*:2]].Y.F.[meL].[Nle].[Orn].[meA].R.G.[am]}$$$$V2.0), for which the EC50 was 0.0022 µM at human NMUR2 receptor [1], 0.0205 µM at human NMUR2 receptor [2] and more than 1 µM at human NMUR1 receptor.

For `CCCC[C@H](NC(=O)[C@H](CC(C)C)N(C)C(=O)[C@H](Cc1ccccc1)NC(=O)[C@H](Cc1ccc(O)cc1)NC(=O)CN1CCN(CCNC(=O)CN(C)C(=O)CN(C)C(=O)CN(C)C(=O)CN(C)C(=O)CN(C)C(=O)CN(C)C(=O)CN(C)C(=O)CN(C)C(=O)CN(C)C(=O)CN(C)C(=O)CN(C)C(=O)CN(C)C(=O)CN(C)C(=O)CN(C)C(=O)CN(C)C(=O)CC[C@H](NC(=O)CC[C@H](NC(=O)CC[C@H](NC(=O)CCCCCCCCCCCCCCCCC(=O)O)C(=O)O)C(=O)O)C(=O)O)CC1)C(=O)N[C@@H](Cc1ccncc1)C(=O)N1CCC[C@H]1C(=O)N[C@@H](CCCNC(=N)N)C(=O)NCC(N)=O` [Compound 45, C18DA-gGlu3-Sar15-AEPipAc-Tyr-Phe-NMeLeu-Nle-4Pal-Pro-Arg-Gly-NH2] ({C18 diacid-γGlu-γGlu-γGlu}-[Sar][Sar][Sar][Sar][Sar][Sar][Sar][Sar][Sar][Sar][Sar][Sar][Sar][Sar][Sar][Pipz(1-CH2CO,4-CH2CH2NH)]YF[NMeL][Nle][4Pal]PRG-NH2), the 50% effective concentration (EC50) was 0.03 µM at human NMUR2 receptor [1], 0.129 µM at human NMUR2 receptor [2] and more than 1 µM on human NMUR1 receptor.
